Results taken from patent US20160355465A1, “NOVEL MODIFIED CURCUMINS AND THEIR USES” (THE RESEARCH FOUNDATION OF STATE UNIVERSITY OF NEW YORK, priority 2011, published 2016).

What was measured:
MMP-8 = MMP-8 (Homo sapiens, UniProt P22894); assay: fluorimetric assay of MMP activity; type: biochemical; settings: synthetic fluorescent peptide substrate Mca-Lys-Pro-Leu-Gly-Leu-Dpa-Ala-Arg-NH2
MMP-2 = target: T1, MMP-2 (Homo sapiens, UniProt P08253); assay: fluorimetric assay of MMP activity; type: biochemical; settings: synthetic fluorescent peptide substrate Mca-Lys-Pro-Leu-Gly-Leu-Dpa-Ala-Arg-NH2; read-out: IC50 MMP-2
T1 sequence (P08253 110-660): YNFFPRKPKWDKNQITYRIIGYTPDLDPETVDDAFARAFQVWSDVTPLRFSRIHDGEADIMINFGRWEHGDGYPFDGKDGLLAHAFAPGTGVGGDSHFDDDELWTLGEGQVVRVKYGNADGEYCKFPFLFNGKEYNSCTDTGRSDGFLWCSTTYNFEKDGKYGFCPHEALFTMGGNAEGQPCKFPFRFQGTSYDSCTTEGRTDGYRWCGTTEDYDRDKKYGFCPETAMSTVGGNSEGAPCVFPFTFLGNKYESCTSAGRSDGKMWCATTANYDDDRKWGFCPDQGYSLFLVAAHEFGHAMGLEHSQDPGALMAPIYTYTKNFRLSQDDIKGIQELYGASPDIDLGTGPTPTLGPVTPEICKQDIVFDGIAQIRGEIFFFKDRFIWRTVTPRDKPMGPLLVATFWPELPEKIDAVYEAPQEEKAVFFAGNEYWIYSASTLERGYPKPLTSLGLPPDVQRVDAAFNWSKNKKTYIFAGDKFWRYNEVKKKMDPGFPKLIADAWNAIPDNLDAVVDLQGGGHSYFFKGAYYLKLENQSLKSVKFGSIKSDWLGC

[1] = severity of hyperglycemia (blood glucose, HbA1c) in diabetic rats; type: in vivo, rat
Experimental: (§1) The following five experimental groups (n=3 rats per group) were established: Non-diabetic control rats (NDC) treated by daily application of white petrolatum jelly (“vehicle”) for 7 days, diabetic rats (D group) treated daily with vehicle alone; diabetics treated by daily topical application of either a 1% (D+1%) or a 3% (D+3%) suspension of Compound 4 in the vehicle; and diabetics treated systemically by daily oral intubation of a 1 ml suspension of Compound 4 (in carboxymethylcellulose) at a dose of 30 mg/kg over the 7-day treatment protocol (D+30 mg/kg). At the end of this time period, the circular wounds were clinically assessed by measuring diameter of the wound in millimeters, blood samples were collected, the rats were sacrificed, and skin samples collected for histological/histochemical, and biochemical assessment as described below. • 1) On day 7 after inducing wound healing, the animals were anesthetized and blood samples collected for blood glucose (one Touch Ultra Glucometer; Johnson & Johnson, New Brunswick, N.J.) and Hemoglobin A1c (A1c Now+; Bayer Health Care, Sunnyvale, Calif.) measurements. • 2) Photographs were taken for clinical observations to assess wound closure. […]

skin wounds = assay: histological and histomorphometric assessment of skin wounds; type: in vivo, rat; settings: diabetic rats, topical 1% and systemic compared with topical 3%, 7 days
Experimental: as §1

peritoneal macrophages = assay: macrophage accumulation in peritoneal exudates of diabetic rats; type: in vivo, rat; settings: oral 30 mg/kg daily, 21 days
Experimental: Adult male Sprague-Dawley rats (body weight 300-350 g) were injected through the tail vein with either 0.9% saline (non-diabetic control) or with the same solution containing streptozotocin (70 mg/kg body weight) to induce diabetes. Non-diabetic rats served as normal controls. The diabetic rats were distributed into 2 experimental groups (3 rats per group). Urine glucose levels were measured weekly with Tes-Tape (Eli Lilly Inc.). One group of rats was treated by oral gavage of Compound 4 (30 mg/kg body weight) daily for 21 days; the Compound 4 was suspended in 2% carboxymethyl cellulose and polytron/homogenized. The normal & diabetic vehicle-treated (control) groups were oral gavaged with vehicle alone daily.
Rat peritoneal macrophages were harvested with 10 ml RPMI 4 days after intraperitoneal injection of 10 ml of thioglycolate (3% wt/vol). Macrophages were then purified by density gradient centrifugation (lymphoprep) and cell numbers were counted in a hemocytometer. The cells were then tested in a cell migration assay (Cell BioLabs, Inc, CytoSelect 96-well with 5 um fluorometric format) using conditioned medium containing inflammatory mediators including MCP-1 from LPS-macrophages as a chemoattractant. The macrophages from different groups of rats were also plated onto 24 well-plates with and without p.g.LPS challenge for 24 hours in 37° C., 5% CO2. […]

collagen in wound tissue = assay: collagen fractions (hydroxyproline) in wound tissue of diabetic rats; type: in vivo, rat; settings: wound tissue day 6
Text: Biochemical measurements were made on wound tissue 6 days after creating the standardized 6 mm diameter wounds in the various groups of rats including: (1) non-diabetic controls (NDC); (2) Diabetic (DM) rats treated topically with 0.25% curcumin; (3) DM treated with 1% curcumin; (4) DM treated with 0.25% Compound 4, and (5) DM rats treated with 1% Compound 4. The wound tissues from these five different groups were then hydrolyzed (after extraction; see below) to degrade the collagen to individual amino acids, and the amino acid unique to collagen, hydroxyproline, was measured by a commercial colorimetric assay. Prior to hydrolysis, the wound tissues were extracted (at 4° C. to maintain the triple-helical conformation of the collagen molecules) to obtain first the salt-soluble fraction, then the acid-soluble fraction, leaving the insoluble fraction.

contact dermatitis = assay: poison ivy contact dermatitis on the arms of a human subject, topical; type: in vivo; settings: Example 9
Text: The leaves of a poison ivy plant are applied to equally sized areas of the left and right arms of a human subject.

mosquito bites = mosquito bites on the arms of a human subject, topical; type: in vivo; settings: Example 9
Text: Mosquitoes are presented with and allowed to bite the left and right arms of a human subject.

Sequence of MMP-8 (P22894 101-467): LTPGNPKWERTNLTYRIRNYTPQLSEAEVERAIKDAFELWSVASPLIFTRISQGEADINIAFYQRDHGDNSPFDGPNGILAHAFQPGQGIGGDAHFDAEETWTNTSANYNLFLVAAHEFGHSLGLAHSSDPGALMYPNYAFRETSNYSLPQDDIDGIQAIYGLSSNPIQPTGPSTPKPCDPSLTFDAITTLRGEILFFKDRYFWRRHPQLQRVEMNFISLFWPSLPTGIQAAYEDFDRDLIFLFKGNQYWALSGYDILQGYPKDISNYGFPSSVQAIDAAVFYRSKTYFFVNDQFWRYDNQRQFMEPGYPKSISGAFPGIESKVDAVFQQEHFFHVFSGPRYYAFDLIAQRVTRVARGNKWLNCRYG

For `O=C(/C=C/c1ccc(O)cc1)C(C(=O)/C=C/c1ccc(O)cc1)C(=O)Nc1ccccc1` [Compound 4, 1,7-Bis(4-hydroxyphenyl)-4-N-phenylaminocarbonylhepta-1E, 6E-dien-3,5-dione], the IC50 (MMP-8) was 4.5 ± 0.5 µM, the IC50 (MMP-2) was 4.8 ± 0.5 µM and the “effect on severity of hyperglycemia” value ([1]; oral 30 mg/kg daily, 21 days) was “did not affect the severity of hyperglycemia”. The “effect on severity of hyperglycemia (blood glucose, HbA1c)” value ([1]; topical 1% or 3% or oral 30 mg/kg, 7 days) was “none of the topical or systemic treatments with Compound 4 demonstrated any effect”, the “histological healing of epithelium and connective tissue” value (skin wounds) was “more effective than treatment with topical 3% Compound 4” and the “macrophage accumulation in peritoneal exudates” value (peritoneal macrophages) was “decreased pathologically excessive macrophage accumulation”. For the same molecule, the “Collagen Fractions (%) Acid-soluble” value (collagen in wound tissue; 0.25% topical) was 41.7%, the “Collagen Fractions (%) Insoluble” value (collagen in wound tissue; 0.25% topical) was 31.7% and the “Collagen Fractions (%) Salt-soluble” value (collagen in wound tissue; 0.25% topical) was 26.6%. The “Collagen Fractions (%) Acid-soluble” value (collagen in wound tissue; 1% topical) was 29.4%, the “Collagen Fractions (%) Insoluble” value (collagen in wound tissue; 1% topical) was 40.5% and the “Collagen Fractions (%) Salt-soluble” value (collagen in wound tissue; 1% topical) was 30.1%. For the same molecule, the “itching and healing of contact dermatitis compared with Compound 2” value (contact dermatitis) was “stops itching sooner and heals quicker” and the “itching and healing of mosquito bites compared with Compound 2” value (mosquito bites) was “stop itching sooner and heal quicker”.
